One test deals with T1, NK-1 receptor (Homo sapiens, UniProt P25103).
T1 construct: endogenous in cells; host or cells: IM9 cells (human cell line), whole cells
Briefly: NK-1 Receptor Binding Assay (125I-labeled substance P, IM9 cells). The settings on record: inhibits fifty percent of binding of 125I-substance P to IM9 cells. How it is done:
The biological activity of the compounds of the present invention was evaluated employing an initial screening assay which rapidly and accurately measured the binding of the tested compound to known NK-1 and NK-2 receptor sites. Assays useful for evaluating tachykinin receptor antagonists are well known in the art.
NK-1 Receptor Binding Assay
Radioreceptor binding assays were performed using a derivative of a previously published protocol.
The IM9 cell line is a well-characterized and readily available human cell line.
The reaction was terminated by filtration through a glass fiber filter harvesting system using filters previously soaked for 20 minutes in 0.1% polyethylenimine. Specific binding of labeled substance P was determined in the presence of 20 nM unlabeled ligand.

For another test, the target named is T2, human NK-2 receptor (Homo sapiens, UniProt P21452).
T2 construct: expressed in transfected cells; host or cells: CHO-hNK-2R cells (CHO-derived), membrane preparation
T2 sequence (P21452 1-398): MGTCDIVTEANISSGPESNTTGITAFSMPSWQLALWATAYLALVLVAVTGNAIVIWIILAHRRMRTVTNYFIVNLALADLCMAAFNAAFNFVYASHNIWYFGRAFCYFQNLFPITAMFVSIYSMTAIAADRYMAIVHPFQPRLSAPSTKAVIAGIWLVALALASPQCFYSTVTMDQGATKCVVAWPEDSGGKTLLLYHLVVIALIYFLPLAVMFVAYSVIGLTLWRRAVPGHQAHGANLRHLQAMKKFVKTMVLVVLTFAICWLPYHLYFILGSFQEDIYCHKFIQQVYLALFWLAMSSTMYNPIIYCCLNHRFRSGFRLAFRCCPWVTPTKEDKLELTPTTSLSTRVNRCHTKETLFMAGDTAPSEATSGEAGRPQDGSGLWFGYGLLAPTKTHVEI
Briefly: NK-2 Receptor Binding Assay ([125I]iodohistidyl-neurokinin A, CHO-hNK-2R membranes). The settings on record: for IC50: inhibits fifty percent of binding of [125I]iodohistidyl-neurokinin A to CHO-hNK-2R membranes. On the procedure: The biological activity of the compounds of the present invention was evaluated employing an initial screening assay which rapidly and accurately measured the binding of the tested compound to known NK-1 and NK-2 receptor sites. Assays useful for evaluating tachykinin receptor antagonists are well known in the art. See. e.g., J. Jukic, et al., Life Sciences, 49:1463-1469 (1991); N. Kucharczyk, et al., Journal of Medicinal Chemistry, 36:1654-1661 (1993); N. Rouissi, et al., Biochemical and Biophysical Research Communications, 176:894-901 (1991).
NK-2 Receptor Binding Assay
The CHO-hNK-2R cells, a CHO-derived cell line transformed with the human NK-2 receptor, expressing about 400,000 such receptors per cell, were grown in 75 cm^2 flasks or roller bottles in minimal essential medium (alpha modification) with 10% fetal bovine serum. The gene sequence of the human NK-2 receptor is given in N. P. Gerard, et al., Journal of Biological Chemistry, 265:20455-20462 (1990).
For preparation of membranes, 30 confluent roller bottle cultures were dissociated by washing each roller bottle with 10 ml of Dulbecco's phosphate buffered saline (PBS) without calcium and magnesium, followed by addition of 10 ml of enzyme-free cell dissociation solution (PBS-based, from Specialty Media, Inc.). After an additional 15 minutes, the dissociated cells were pooled and centrifuged at 1,000 RPM for 10 minutes in a clinical centrifuge. Membranes were prepared by homogenization of the cell pellets in 300 ml 50 mM Tris buffer, pH 7.4 with a Tekma® homogenizer for 10-15 seconds, followed by centrifugation at 12,000 RPM (20,000×g) for 30 minutes using a Beckman JA-14® rotor. The pellets were washed once using the above procedure. and the final pellets were resuspended in 100-120 ml 50 mM Tris buffer, pH 7.4, and 4 ml aliquots stored frozen at −70° C. The protein concentration of this preparation was 2 mg/ml.
For the receptor binding assay, one 4-ml aliquot of the CHO-hNK-2R membrane preparation was suspended in 40 ml of assay buffer containing 50 mM Tris, pH 7.4, 3 mM manganese chloride, 0.02% bovine serum albumin (BSA) and 4 μg/ml chymostatin. A 200 μl volume of the homogenate (40 μg protein) was used per sample. The radioactive ligand was [^125I]iodohistidyl-neurokinin A (New England Nuclear, NEX-252), 2200 Ci/mmol. The ligand was prepared in assay buffer at 20 nCi per 100 μl; the final concentration in the assay was 20 pM. Non-specific binding was determined using 1 μM eledoisin. Ten concentrations of eledoisin from 0.1 to 1000 nM were used for a standard concentration-response curve.
All samples and standards were added to the incubation in 10 μl dimethylsulfoxide (DMSO) for screening (single dose) or in 5 μl DMSO for IC50 determinations. The order of additions for incubation was 190 or 195 μl assay buffer, 200 μl homogenate, 10 or 5 μl sample in DMSO, 100 μl radioactive ligand. The samples were incubated 1 hr at room temperature and then filtered on a 48 well Brandel cell harvester through GF/B filters which had been presoaked for two hours in 50 mM Tris buffer, pH 7.7, containing 0.5% BSA. The filter was washed 3 times with approximately 3 ml of cold 50 mm Tris buffer, pH 7.7. The filter circles were then punched into 12×75 mm polystyrene tubes and counted in a gamma counter.

T1 sequence (P25103 whole entry): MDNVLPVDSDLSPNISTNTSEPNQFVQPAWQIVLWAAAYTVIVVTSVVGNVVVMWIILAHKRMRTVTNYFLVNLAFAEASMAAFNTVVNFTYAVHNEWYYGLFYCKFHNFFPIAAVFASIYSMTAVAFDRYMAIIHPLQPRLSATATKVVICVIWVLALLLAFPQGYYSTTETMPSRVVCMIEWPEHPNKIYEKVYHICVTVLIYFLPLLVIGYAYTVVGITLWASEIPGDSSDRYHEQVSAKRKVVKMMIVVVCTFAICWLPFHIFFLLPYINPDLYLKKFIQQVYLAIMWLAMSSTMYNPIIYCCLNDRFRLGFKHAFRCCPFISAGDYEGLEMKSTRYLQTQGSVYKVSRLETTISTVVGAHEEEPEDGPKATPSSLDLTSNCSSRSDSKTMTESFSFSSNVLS

With `COc1ccccc1CNCC(CC1CNc2ccccc21)NC(=O)CN1CCN(c2ccccc2)CC1` (mixture of isomers) [Example 137], the IC50 (as a rule, the concentration needed to halve the response being measured) worked out at 220 nM on NK-1 receptor and 2700 nM at human NK-2 receptor. As to `COc1ccccc1CN(CC(CC1CNc2ccccc21)NC(=O)CN1CCN(c2ccccc2)CC1)C(C)=O` (mixture of isomers) [Example 144], the values for the 50% inhibitory concentration (IC50) on NK-1 receptor and on human NK-2 receptor were 52 nM and 1200 nM, respectively. Turning to `COc1ccccc1CN(CC(CC1CN(C(C)=O)c2ccccc21)NC(=O)CN1CCN(c2ccccc2)CC1)C(C)=O` (mixture of isomers) [Example 145], the IC50 at NK-1 receptor was determined as 76 nM; at human NK-2 receptor it was 1900 nM. Regarding `COc1ccccc1CN(CC(Cc1c[nH]c2ccccc12)NC(=O)CN1CCN(c2ccccc2)CC1)C(C)=O` (racemic) [Example 17], the IC50 on human NK-2 receptor was 1600 nM. Take `CC(=O)N(Cc1ccccc1Cl)CC(Cc1c[nH]c2ccccc12)NC(=O)CN1CCC(N2CCCCC2)CC1` (racemic) [Example 47]: the IC50 was 0.25 nM at NK-1 receptor and 1800 nM at human NK-2 receptor.

In the case of `COc1ccccc1CN(CC(Cc1c[nH]c2ccccc12)NC(=O)CN1CCC(N2CCCCC2)CC1)C(C)=O` (racemic) [Example 50], the IC50 on human NK-2 receptor is 3400 nM. This lies in the single-digit micromolar range. Turning to `COc1ccccc1CN(CC(Cc1c[nH]c2ccccc12)NC(=O)CCc1ccccc1)C(C)=O` (racemic) [Example 89], the IC50 amounted to 170 nM on NK-1 receptor and 1200 nM at human NK-2 receptor. Turning to `COc1ccccc1CN(CC(Cc1c[nH]c2ccccc12)NC(=O)CCC(=O)c1ccccc1)C(C)=O` (racemic) [Example 95], the IC50 on NK-1 receptor was determined as 9.6 nM; at human NK-2 receptor, 1000 nM. Taken in the same sequence, the figures for `O=C(CN1CCN(c2ccccc2)CC1)NC(CNCc1ccccc1)Cc1c[nH]c2ccccc12` (stereo not shown) [Example 1] were 53 nM and 1700 nM. For `COc1ccccc1CNCC(Cc1c[nH]c2ccccc12)NC(=O)CN1CCN(c2ccccc2)CC1` (stereo not shown) [Example 4], the figures for the IC50 at NK-1 receptor and on human NK-2 receptor were 40 nM and 1500 nM, respectively. In the case of `CCN(Cc1ccccc1OC)CC(Cc1c[nH]c2ccccc12)NC(=O)CN1CCN(c2ccccc2)CC1` (stereo not shown) [Example 9], the IC50 worked out at 84 nM at NK-1 receptor and 640 nM on human NK-2 receptor. Regarding `COC(=O)CN(Cc1ccccc1OC)CC(Cc1c[nH]c2ccccc12)NC(=O)CN1CCN(c2ccccc2)CC1` (stereo not shown) [Example 10], the IC50 was found to be 19 nM at NK-1 receptor and 820 nM at human NK-2 receptor.

Take `COc1ccccc1CN(CC(=O)O)CC(Cc1c[nH]c2ccccc12)NC(=O)CN1CCN(c2ccccc2)CC1` (stereo not shown) [Example 11]: the IC50 on NK-1 receptor turned out to be 65 nM; on human NK-2 receptor, 2400 nM. Taken in the same sequence, the figures for `CC(=O)N(Cc1ccccc1)CC(Cc1c[nH]c2ccccc12)NC(=O)CN1CCN(c2ccccc2)CC1` (stereo not shown) [Example 12] were 1.6 nM and 1600 nM. For the compound `CC(=O)N(Cc1ccccc1C)CC(Cc1c[nH]c2ccccc12)NC(=O)CN1CCN(c2ccccc2)CC1` (stereo not shown) [Example 14], the values for the IC50 at NK-1 receptor and on human NK-2 receptor were 3.1 nM and 1000 nM, respectively. As for `CC(=O)N(Cc1ccccc1[N+](=O)[O-])CC(Cc1c[nH]c2ccccc12)NC(=O)CN1CCN(c2ccccc2)CC1` (stereo not shown) [Example 16], the IC50 on NK-1 receptor amounted to 4.2 nM; on human NK-2 receptor, 1200 nM. For the compound `CC(=O)N(Cc1cccc(F)c1)CC(Cc1c[nH]c2ccccc12)NC(=O)CN1CCN(c2ccccc2)CC1` (stereo not shown) [Example 20], the IC50 on NK-1 receptor is 6 nM; on human NK-2 receptor, 870 nM.

Turning to `COc1cccc(CN(CC(Cc2c[nH]c3ccccc23)NC(=O)CN2CCN(c3ccccc3)CC2)C(C)=O)c1` (stereo not shown) [Example 21], the values for the IC50 on NK-1 receptor and on human NK-2 receptor were 4.6 nM and 1200 nM, respectively. `COc1ccc(CN(CC(Cc2c[nH]c3ccccc23)NC(=O)CN2CCN(c3ccccc3)CC2)C(C)=O)cc1` (stereo not shown) [Example 22]: the figures for the IC50 at NK-1 receptor and on human NK-2 receptor were 2.1 nM and 3300 nM, respectively. As to `CSc1ccc(CN(CC(Cc2c[nH]c3ccccc23)NC(=O)CN2CCN(c3ccccc3)CC2)C(C)=O)cc1` (stereo not shown) [Example 23], the IC50 on NK-1 receptor was found to be 13 nM; on human NK-2 receptor it was 810 nM. The corresponding values for `COc1ccccc1CN(C=O)CC(Cc1c[nH]c2ccccc12)NC(=O)CN1CCN(c2ccccc2)CC1` (stereo not shown) [Example 24] are 1.2 nM and 640 nM. Taken in the same sequence, the figures for `CCC(=O)N(Cc1ccccc1OC)CC(Cc1c[nH]c2ccccc12)NC(=O)CN1CCN(c2ccccc2)CC1` (stereo not shown) [Example 26] were 0.75 nM and 650 nM. On to `COc1ccccc1CN(CC(Cc1c[nH]c2ccccc12)NC(=O)CN1CCN(c2ccccc2)CC1)C(=O)c1ccccc1` (stereo not shown) [Example 27], for which the figures for the IC50 on NK-1 receptor and on human NK-2 receptor were 1.6 nM and 710 nM, respectively. `CCOC(=O)N(Cc1ccccc1OC)CC(Cc1c[nH]c2ccccc12)NC(=O)CN1CCN(c2ccccc2)CC1` (stereo not shown) [Example 28, 1-[N-ethoxycarbonyl-N-(2-methoxybenzyl)amino]-3-(1H-indol-3-yl)-2-[N-(2-((4-phenyl)piperazin-1-yl)acetyl)amino]propane]: the IC50 on NK-1 receptor was 1.7 nM; at human NK-2 receptor it was 1000 nM. With `CNC(=O)N(Cc1ccccc1OC)CC(Cc1c[nH]c2ccccc12)NC(=O)CN1CCN(c2ccccc2)CC1` (stereo not shown) [Example 29, 3-(1H-indol-3-yl)-1-[N-(2-methoxybenzyl)-N-(methylaminocarbonyl)amino]-2-[N-(2-((4-phenyl)piperazin-1-yl)acetyl)amino]propane], the IC50 on NK-1 receptor is 1.5 nM; at human NK-2 receptor, 1500 nM. Turning to `COC(=O)CC(=O)N(Cc1ccccc1OC)CC(Cc1c[nH]c2ccccc12)NC(=O)CN1CCN(c2ccccc2)CC1` (stereo not shown) [Example 30], the results for the IC50 at NK-1 receptor and on human NK-2 receptor were 1 nM and 680 nM, respectively. Take `COc1ccccc1CN(CC(Cc1c[nH]c2ccccc12)NC(=O)CN1CCN(c2ccccc2)CC1)C(=O)CC(=O)O` (stereo not shown) [Example 31]: the IC50 on NK-1 receptor amounted to 9.2 nM; at human NK-2 receptor it was 6200 nM. Turning to `COc1ccccc1CN(CC(Cc1c[nH]c2ccccc12)NC(=O)CN1CCN(c2ccccc2)CC1)C(=O)COC(C)=O` (stereo not shown) [Example 32], the IC50 worked out at 0.98 nM on NK-1 receptor and 1100 nM at human NK-2 receptor.

Regarding `COc1ccccc1CN(CC(Cc1c[nH]c2ccccc12)NC(=O)CN1CCN(c2ccccc2)CC1)C(=O)CO` (stereo not shown) [Example 33], the IC50 at NK-1 receptor is 1.9 nM; at human NK-2 receptor, 670 nM. The corresponding values for `COc1ccccc1CN(CC(Cc1c[nH]c2ccccc12)NC(=O)CN1CCN(c2ccccc2)CC1)C(=O)CN` (stereo not shown) [Example 34] are 6.2 nM and 590 nM.

On to `COc1ccccc1CN(CC(Cc1c[nH]c2ccccc12)NC(=O)CN1CCN(c2ccccc2)CC1)C(=O)CN(C)C` (stereo not shown) [Example 35], for which the IC50 on NK-1 receptor stood at 0.89 nM; at human NK-2 receptor, 600 nM. With `O=C(NCC(Cc1ccccc1)NC(=O)c1ccccc1)c1ccccc1` (stereo not shown) [Example 163], the “NK-2 percent inhibition of binding” value on human NK-2 receptor (@ 10 μM) was determined as 44% @.
